Measurements reported in patent US20130236568A1, “PHOSPHAPLATINS HAVING ANTI-ANGIOGENIC, ANTI-METASTATIC, AND PRO-APOPTOTIC PROPERTIES AND USES THEREOF” (Ohio University, priority 2011, published 2013).

Key:
[1] = tested on: yeast deletion collection; assay: Genome-wide fitness assay in yeast (pooled deletion strains); type: cell-based; conditions: for Sensitivity of DNA damage/repair genes (NER, HRR, PRR): phosphaplatins at 200 μM final concentration
Description: The around 6000 strains in the yeast deletion collection can be studied in a single culture by using a microarray to detect the 20 bp DNA “barcodes” or “tags” contained in each strain. Barcode intensities are compared across time-points or across conditions to analyze the relative fitness of each strain. This development of the pooled fitness assay has greatly facilitated the functional annotation of the yeast genome by making genome-wide gene-deletion studies faster and easier, and has led to the development of high throughput methods for studying drug action in yeast. Pooled screens can be used for identifying gene functions, measuring the functional relatedness of gene pairs in order to group genes into pathways, identifying drug targets, and determining a drug's mechanism of action. This process involves five main steps: preparing aliquots of pooled cells, pooled growth, isolation of genomic DNA and PCR amplification of the barcodes, array hybridization (or next generation sequencing), and data analysis.
The pooled fitness assay involves five main steps (FIG. 3). First, the deletion collection is grown on solid media in arrayed format and the resulting cells are pooled and frozen to make cell aliquots that will be used for starting growth experiments. Cells are then grown in the desired conditions, typically for 5 to 20 generations. The barcodes from the resulting cell samples are prepared for hybridization by isolation of the genomic DNA and PCR amplification of the barcodes. The barcodes are amplified in two reactions to prevent crosstalk between the uptag and downtag primers. The resulting PCR products are then hybridized to tag arrays with one array needed per cell sample. Data is then analyzed to determine differences in strain representation between pairs of samples.
To analyze the genome wide effects of pyrodach-2 and -4, we screened 2 collections of strains, 1200 essential genes as heterozygote deletion mutants (reducing functional gene dose from 2 to 1) and 4800 non-essential genes as complete deletions (reducing functional gene dose from 2 to 0). Both compounds were screened at the highest dose possible (200 μM final concentration) to increase the likelihood of finding compound-specific sensitive strains.
Fitness profiling of pooled deletion strains involves […] main steps: • 1. Strains are first pooled at approximately equal abundance. • 2. The pool is grown competitively in the condition of choice and a control condition. If a gene is sensitive to the treatment condition, the strain carrying this deletion will grow more slowly and become under-represented relative to the control culture (purple strain). Resistant strains will grow faster and become over-represented (not shown). • 3. Genomic DNA is isolated from cells harvested at the end of pooled growth, and barcodes are amplified from the genomic DNA with universal primers. • 4. PCR products are then hybridized to an array that detects the tag sequences, giving tag intensities for the two samples. • 5. The treatment and control sample are then compared to determine the relative fitness of each strain. Note that only the purple strain is described as sensitive to the condition. While the red strain grows more slowly than the blue strain in the treatment, this growth difference in not of interest because it matches that seen in the control.

[2] = tested on: VEGFR2 gene; assay: Quantitative real-time PCR, VEGFR2 gene expression in A2780 cells; type: cell-based, human; conditions: A2780 (cisplatin-sensitive); positive = manifold increase, negative = relative decrease vs untreated cells; cisplatin 7 μM, pyrodach-4 180 μM
Experimental: (§1) Evaluations of selected gene expressions in Human Umbilical Vein Endothelial Cells (HUVEC) and Human Ovarian Cancer Cells by quantitative reverse transcriptase polymerase chain reaction (PCR)
(§2) Quantitative real-time PCR experiments were performed to estimate the expression of a selection of targeted genes. HUVEC cells (Lonza Walkersville, Frederick, Md.) were cultured on 0.1% gelatin-coated petri dishes by following standard protocols recommended by the vendor in a humidified incubator by maintaining 5% CO2 at 37° C. Human epithelial ovarian cancer cells (A2780) and cisplatin-resistant cells (A2780/C30) were cultured in RPMI 1640 with or without cisplatin (7 μM) and pyrodach-4 (180 μM) for 0, 3, 12 and 24 hours. […] HUVECs were treated with or without cisplatin (7 μM) or pyrodach-4 (90 or 180 μM) for various durations ranging from 1 hr. to 6 hrs.
(§3) Both treated and untreated cancer cells were maintained in RPMI 1640 medium with 10% fetal bovine serum, 2 μmol L-glutamine, 100 units/mL penicillin-streptomycin and 0.25 units/mL insulin solution, at 37° C. with 5% CO2. RNA was isolated from both the treated and untreated cells. […] The quantity and purity of RNA were determined by UV spectroscopy (NanoDrop 2000 Thermo Scientific, Wilmington, Del.). A minimum absorbance ratio index (ratio of the absorbance measured at 260 nm over that at 280 nm) of 1.9 was used as an acceptable purity. […] The target gene was labeled with a blue dye (FAM, absorbance: 494 nm, emission: 518 nm) while the reference gene was tagged with a green dye (VIC, absorbance: 538 nm, emission: 554 nm). The cDNA concentrations were selected such that the threshold cycle (Ct) values for the target genes were between 17 and 32, most sensitive for the fluorescence detection by ABI StepOnePlus™ instrument used for the measurements.
(§4) The threshold cycle number (Ct), the point at which the fluorescence of the qPCR reaction just exceeds the threshold fluorescence of the detection system, was determined. […]

[3] = tested on: VEGFR2 gene; assay: Quantitative real-time PCR, VEGFR2 gene expression in A2780/C30 cells; type: cell-based, human; conditions: A2780/C30 (cisplatin-resistant); positive = manifold increase, negative = relative decrease vs untreated cells; cisplatin 7 μM, pyrodach-4 180 μM
Experimental: as §1, §2, §3, §4

[4] = tested on: A2780/C30 cells; assay: Cell death detection assay with ELISA, A2780/C30 cells; type: cell-based, human; conditions: 7 μM cisplatin or 180 μM D4
Experimental: In these experiments, ovarian cancer cells were treated with pyrodach-4 in the presence and absence of inhibitors PFT-α (an inhibitor p53) and LY29400 (an inhibitor of PI3K).
The different treatment groups from left to right are: control, 7 μM cisplatin, Con+PFT-α, 180 μM D4, 180 μM D4+PFT-α, 180 μM D4+LY294002. Apoptosis was quantified using the Cell Death Detection ELISA from Roche.
A2780 and A2780/C30 cells were grown in monolayers, trypsinized and suspended in supplemented RPMI 1640 media as described in Example 5. All the treatments on the Fc/A2780 and Fc/A2780/C30 cell samples were carried out in triplicate. The ELISA was performed according to the manufacturer's instructions. Briefly, 50,000 cells were plated for each treatment and the cells were allowed to adhere for 4-6 hours. Cells were then either incubated with media alone (untreated sample) or with pyrodach-4 or cisplatin in the concentrations indicated above. DNA of the treated and untreated cells was assayed for nucleosomal DNA using the ELISA kit (purchased from Roche Diagnostics, Mannheim, Germany). The cells were lysed for 30 minutes using the lysis buffer. After centrifuging, 10% (v/v) supernanant was incubated with anti-histone-biotin and anti-DNA-peroxidase. After two hour incubation, the pellets were washed three times and incubated with the substrate solution. The absorbances were measured at 405 and 490 nm for each treatment type using SPECTRA Max M2 multichannel fluorescence plate reader (Molecular Devices, Sunnyvale, Calif.). The absorbances of the treated samples were normalized to the substrate solution.

[5] = yeast deletion strains, 200 μM final concentration

Row | SMILES | Tolerability by the yeast cell (few sensitive strains) ([1]; highest dose possible, 200 μM final concentration) | Compound-specific sensitive strain [1, 5] | Functions enriched among sensitive strains [1, 5] | Sensitivity of DNA damage/repair genes (NER, HRR, PRR) ([1]; yeast deletion strains) | Normalized expression of VEGFR2 gene [2] | Normalized expression of VEGFR2 gene [3] | Apoptotic cell death (ELISA absorbance) [4]
1 | NC1CCCCC1N.O=P([O-])(O)OP(=O)([O-])O.[Pt+2] (racemic) [pyrodach-2, trans-(±)-1,2-cyclohexanediamine(pyrophosphato) platinum(II)] | well tolerated by the cell | induced sensitivity in the strain avo2 | 1) iron and copper transport and 2) metal-regulated transcription factors | not a single gene involved in DNA repair or other DNA metabolic processes showed any sensitivity as a mutant |  |  | 
2 | N.N.[Cl][Pt][Cl] [Cisplatin, cisplatin, reference compound] |  |  |  | induced expression of those genes related to the DNA response | 2.5 | 2.0 | insignificant increase in absorbance
